Experimental findings from patent US20260325443A1, “OLFACTORY DELIVERY OF THERAPEUTIC PSYCHEDELICS” (Rocket Science Health Corp., priority 2023, published 2026) are described below.

SMILES strings stand for the structures. “And” between values parts separate entries of the source, which are not always exact repeats. Identical values can stand only once. Counter-ions that a name gives are not always drawn.

Series [1] is described as follows: Plasma and tissue concentrations of ketamine via olfactory delivery compared to intravenous administration in rats (LC/MS/MS). In kind it is in vivo, male Sprague Dawley rats. Conditions: 5 mg/kg; for concentration at 5 min / concentration at 0.25 h / concentration at 0.5 h / concentration at 1 h / concentration at 1.5 h / concentration at 2 h / concentration at 200 min: rat, plasma; for concentration at 0.25 h: 15 min; for concentration at 0.5 h: 30 min; for concentration at 1 h: 60 min; for concentration at 1.5 h: 90 min; for concentration at 2 h: 120 min. As to the method:
Drug Administration and Sample Collection: Intravenous (IV) administration was conducted by 100 μL tail vein injection. Olfactory delivery (OD) administration was conducted by a. 0.699 mm diameter cannula inserted into the right nostril with a minimal angle of 20-degrees to the target of the correct meatus.
Time course experiment and tissue concentration: 12 male Sprague Dawley rats (Age M+/−SD, Weight: 176.27-188.03 g) were administered Ketamine-HCl via IV or OD administration (resulting in two experimental groups, each with n=6). Ketamine-HCl was formulated according to the following procedures: For Ketamine-HCL 5 mg/kg OD: 24.64 mg Ketamine-HCL was added to 0.426 ml of saline, mixed well, and dissolved, with a solution concentration of 50 mg/ml. For Ketamine-HCL 5 mg/kg IV: 0.20 ml of 50 mg/ml Ketamine-HCL solution, was added to 0.60 ml of saline and mixed well to achieve a solution concentration of 12.5 mg/ml. Plasma time courses for 200 minutes were generated. Concentration of compound in brain, olfactory bulb, and plasma at t=200 minutes was quantified using LC/MS/MS.

Series [2] in a line: Visualizing olfactory cleft delivery with methylene blue (nasal endoscope imaging). In kind it is in vivo, human. The settings on record: for Olfactory Residence Time: 0.1 mL, individual participants 2.01-2.05, at least 50% of fluid at olfactory cleft. On the procedure:
Participants: Five healthy participants (ages 19+) with no history of sinonasal symptoms and no evidence of nasal inflammation were recruited for this study. Prior to recruitment of participants study procedures were approved by Providence Health Care research ethics board, (British Columbia, Canada) and conducted under Health Canada Investigational Testing Authorization #314993. All participants were assessed by a licensed otolaryngologist physician to confirm their eligibility. Participants completed two study visits during which a licensed otolaryngologist physician administered 0.1 mL of the visual dye tracer, methylene blue.
Study Design: During the first visit, the methylene blue was administered using the Laminar Fluid Ejection method (1.5 mm cannula; velocity=4.5 m/s). During the second visit, methylene blue was administered using a conventional nasal spray device (Pharma systems Item #10272, UPC: 063636802714). The Pharma systems spray device was used in these experiments because it was the device normally used by the compounding pharmacy for intranasal delivery. It was the device patients and clinicians were used to at this clinic.
Following delivery, the physician used a nasal endoscope to image the deposition of methylene blue to the olfactory cleft at up to five time points (1, 5, 8, 12, and 15 minutes following delivery). From each image, the physician judged whether at least 50% of the methylene blue fluid was delivered to the olfactory cleft. If <50% of the methylene blue was judged to have deposited in the olfactory cleft, imaging was stopped and that session's trial was completed.

A short description of series [3]: Effect of administration routes (OD, IN, IV) on plasma, brain and olfactory bulb drug concentrations in rats (LCMS). The settings on record: 15 min after administration, 5.0 mg/kg.
Method: The goal of this example was to compare nasal cannula delivery (OD) with the traditional IV and IN administration routes.
Procedure: The three routes of administration were tested on rats. A compound formulation of ketamine (5.0 mg/kg), naloxone (0.5 mg/kg), diazepam (2.0 mg/kg), and ondansetron (1.0 mg/kg) was administer. 15 minutes after the drug was administered, rats were sacrificed and samples were taken from plasma, the olfactory bulb, and the brain. To assess each route of administration's efficacy, drug concentrations in each tissue were quantified using liquid chromatography-mass spectrometry (LCMS).

In series [1] (IV), `CNC1(c2ccccc2Cl)CCCCC1=O` (centres unmarked) [Ketamine-HCl] displayed a concentration at 5 min of 1710 ng/mL, a concentration at 0.25 h of 686 ng/mL, a concentration at 0.5 h of 330 ng/mL and a concentration at 1 h of 150 ng/mL. In series [1] (IV), this compound came in with a concentration at 1.5 h of 65.8 ng/mL, a concentration at 2 h of 27.1 ng/mL and a concentration at 200 min of 2.53 ng/mL. In series [1] (OD), this compound showed a concentration at 5 min of 7600 ng/mL, a concentration at 0.25 h of 7250 ng/mL, a concentration at 0.5 h of 2630 ng/mL and a concentration at 1 h of 383 ng/mL. In series [1] (OD), the concentration at 1.5 h is 149 ng/mL, the concentration at 2 h turned out to be 63 ng/mL and the concentration at 200 min was 5.3 ng/mL.
On to `CN(C)c1ccc2nc3ccc(=[N+](C)C)cc-3sc2c1` [Methylene Blue], for which the “Olfactory Residence Time” value in series [2] (LFE Method (1.5 mm cannula; velocity=4.5 m/s)) was 8 min and 5 min and 0 min and 1 min and 15 min; in series [2] (conventional nasal spray), 0 min. In series [2] (Laminar Fluid Ejection method), the “participants with successful delivery of >50% of the methylene blue to the olfactory cleft” value is on record as “Four of the five participants”. For the same compound, the “delivery of at least 50% of the dye to the olfactory cleft” value in series [2] (conventional nasal spray, each of the five participants) is “failed to deliver at least 50% of the dye”.
With `CNC1(c2ccccc2Cl)CCCCC1=O` (centres unmarked) [ketamine], in series [1], the “plasma concentration, OD vs IV” value is given as “higher plasma concentration of ketamine can be achieved with OD than IV”. In series [3], the “delivery to brain tissue, targeted to olfactory cleft (OD) vs traditional intranasal” value was “improved delivery to brain tissue compared to traditional intranasal sprays”.
